Patent US20050058600A1, “3,3'-Diindolylmethane antiandrogenic compositions” (priority 2003, published 2005)

What was measured:
prostate cancer cells = conditions: cited from earlier work
[1] = tested on: BP-induced pulmonary adenomas; conditions: mice; cited from earlier work
breast cancer cells = conditions: in culture; cited from earlier work
[2] = tested on: dimethylbenzanthracene (DMBA)-induced mammary tumors; conditions: rats; cited from earlier work
[3] = tested on: benzo(a)pyrene (BP)-induced tumors of the forestomach; conditions: mice; cited from earlier work
[4] = tested on: skin surrounding the flank organ of the male Syrian hamster; test: Androgen-induced delay of hair growth in the Golden Syrian hamster; assay type: in vivo
Procedure: Mature male golden Syrian hamsters, 101-110 g, are obtained from Charles River Laboratories (Wilmington, Mass.). Pellet implant and blood drawing procedures are performed while animals are under general anaesthesia induced by isoflurane (Aerrane®, Fort Dodge Animal Health, Overland Park, Kans.). Testosterone propionate (TP) is administered in the form of 25 mg dose time-release pellets (Inovative Research of America, Toledo, Ohio). Antiandrogenic DIM derivatives (Example II, supra) are coadministered in parallel 25 mg dose time-release pellets. Control animals receive placebo pellets, which contain only carrier/binder excipients (cholesterol, lactose, celluloses, phosphates, and stearates).
Pellets are implanted subcutaneously. A skin incision is made with scissors on the upper dorsal side of the animal, equal in length to the pellet. A horizontal pocket is created with forceps about 2 cm beyond the incision site. Pellets are placed in the pocket with forceps, and incisions are then closed with a staple suture (Autoclip®, 9 mm, Stoelting Co., Wood Dale, Ill.). Immediately after pellet implantation, the fur on and around each flank organ is shaved with electric clippers. This is designated day 0 of the study. At day 7, the fur around the flank organ is re-clipped. […] On day 21 the surface diameters of the left and right flank organs (encompassed within the pigmented area) are measured with vernier callipers. […]
Sebaceous glands are evaluated in unstained whole mounts of ventral dermal sheets from the left ears. […] The gland areas are measured using an Optomax V image analysis system (Optomax, Hollis, N.H.). The percentage change in sebaceous gland size is calculated by comparing the testosterone-treated group with the placebo-treated group. Serum testosterone is measured by radioimmunoassay at an outside laboratory (AniLytics, Inc., Gaithersburg, Md.).
Hair growth is quantified using a visual grading system (0-3 scale, where 0=no growth, 3=full hair growth). […]

Row | Structure (SMILES) | proliferation of prostate cancer cells (prostate cancer cells) | incidence of BP-induced pulmonary adenomas [1] | proliferation of breast cancer cells (breast cancer cells) | incidence of DMBA-induced mammary tumors [2] | incidence of BP-induced tumors of the forestomach [3] | size of the flank organ and the ear sebaceous glands ([4]; 25 mg TP dose, after 21 days) | hair growth grade (0-3 scale) ([4]; TP alone, day 14) | hair growth ([4]; TP alone, day 21)
1 | OCc1c[nH]c2ccccc12 [I3C, indole-3-carbinol, reference compound] | inhibit proliferation | reduced the incidence | inhibit proliferation | reduced the incidence | reduced the incidence | – | – | –
2 | CCC(=O)O[C@H]1CC[C@H]2[C@@H]3CCC4=CC(=O)CC[C@]4(C)[C@H]3CC[C@]12C [TP, Testosterone propionate] | – | – | – | – | – | marked increase | 0 | insignificant
